Data on 4 compounds can be found in patent publication US20100093696A1, “2-AMINO PYRIMIDINE COMPOUNDS” (Pfizer Inc., priority 2007, published 2010).

Structures can show the parent of a compound that is named as a salt.

The target of this assay is HSP-90 (Homo sapiens, UniProt P07900). Put plainly: HSP-90 SPA (scintillation proximity assay) competition binding assay, tritiated Compound A radioligand (G2). To be noted: read-out: (G2): % inhibition. Background: SPA uses beads or plates that emit light when radiolabelled molecules are held near them.
In general, inhibition refers to the drop in the measured response relative to a control, in per cent. For `CCOC(=O)N1Cc2nc(N)nc(Oc3ccc(Cl)cc3Br)c2C1` [Example 23, ethyl 2-amino-4-(2-bromo-4-chlorophenoxy)-5,7-dihydro-6H-pyrrolo[34-d]pyrimidine-6-carboxylate], the inhibition at 10 µM came out at 0%.

With `CCOC(=O)N1Cc2nc(N)nc(Oc3cc(C)c(Cl)c(C)c3)c2C1` [Example 25, ethyl 2-amino-4-(4-chloro-35-dimethylphenoxy)-5,7-dihydro-6H-pyrrolo[34-d]pyrimidine-6-carboxylate hydrochloride], the inhibition at 10 µM worked out at 0%.

In the case of `CCOC(=O)N1Cc2nc(N)nc(Oc3ccc(Cl)cc3OC)c2C1` [Example 27, ethyl 2-amino-4-(4-chloro-2-methoxyphenoxy)-5,7-dihydro-6H-pyrrolo[3,4-d]pyrimidine-6-carboxylate], the inhibition at 10 µM amounted to 0%.

Consider `CCOC(=O)N1Cc2nc(N)nc(-n3ccc4ccc(F)cc43)c2C1` [Example 46, ethyl 2-amino-4-(6-fluoro-1H-indol-1-yl)-5,7-dihydro-6H-pyrrolo[3,4-d]pyrimidine-6-carboxylate], for which the inhibition at 10 µM came to 0%.
